Results: patent US11453697B1, “Cyclic di-nucleotide compounds as sting agonists” (Merck Sharp & Dohme Corp., priority 2015, dated 2022)
Where two headings read alike, the source gives them in different places.

Tested on: IFN-β secretion in THP1 cells
Test: IFN-β secretion in THP1 cell culture (5 h)
Type: cell-based, human
Protocol: The ability of compounds to stimulate the secretion of interferon-beta from THP1 cells was measured using a human IFN-β AlphaLISA kit (Perkin Elmer, Cat. No. AL265F). The basic protocol is as follows:
The cell viability and count was ascertained using a Beckman Coulter V-Cell XR cell counter. The cells suspension was centrifuged at 200×g for 5 min at RT. […] Subsequent liquid transfers were performed using either a Matrix electronic multichannel pipette or an Agilent Bravo Automated Liquid Handling Platform.
The assay was started by dispensing 40 μL of the previously prepared cell suspension into the wells of the plate containing compounds. After 5 h incubation at 37° C., 5% CO2 in a humidified atmosphere, the plate of cells and compounds was centrifuged at 200×g for 5 min at RT. […] To these supernatant-containing wells was added 10 μL of 5× Anti-Analyte Acceptor beads (50 μg/mL of AlphaLISA HiBlock Buffer) and incubated for 30 min at RT while shaking on an orbital plate shaker. To each well was added 10 μL of 5× Biotinylated Antibody Anti-analyte (5 nM in AlphaLISA HiBlock Buffer) and incubated on an orbital plate shaker for 60 min at RT or overnight at 4° C. To each well was added 25 μL of 2× SA-Donor beads (80 μg/mL in AlphaLISA HiBlock Buffer) and incubated for 30-45 min at RT in the dark while shaking on an orbital plate shaker. The plate was then read on a Perkin Elmer Envision (λex=680 nm, λem=[…]). The percent effect of the AlphaLISA signal at each compound concentration was calculated based on 30 uM cGAMP positive controls and 0.3% DMSO negative controls. The plot of percent effect versus the log of compound concentration was fit with a 4-parameter concentration response equation to calculate EC50 values.
Compounds of the disclosure were evaluated for IFN-β secretion in THP1 cell culture as described above.

[1] = IFN-β secretion in THP1 cell culture, 5 h, compound at 30 μM, percent activation relative to 2′3′-cGAMP

SMILES | % Effect at 30 μM relative to 2′3′-cGAMP [1] [%] | % Effect at 30 μM relative to 2′3′-cGAMP [%]
Nc1nc2c(ncn2[C@@H]2O[C@@H]3COP(=O)(S)OC4[C@@H](COP(=O)(S)O[C@H]2C3O)O[C@@H](n2cnc3c(N)ncnc32)[C@H]4F)c(=O)[nH]1 (single isomer, unassigned) [Example 83] | 133 | 
Nc1nc2c(ncn2[C@@H]2O[C@@H]3COP(=O)(S)OC4C5OC[C@]4(COP(=O)(S)OC2C3O)O[C@H]5n2cnc3c(N)ncnc32)c(=O)[nH]1 (single isomer, unassigned) [Example 94] | 138 | 
Nc1nc2c(ncn2[C@@H]2O[C@@H]3COP(=O)(O)OC4[C@@H](COP(=O)(O)O[C@H]2C3F)O[C@@H](n2cnc3c(N)ncnc32)[C@H]4F)c(=O)[nH]1 (stereo partly drawn) [Example 26, 2-amino-9-[(2S,5R,7R,8S,10S,12aR,14R,15S,15aR,16R)-14-(6-amino-9H-purin-9-yl)-15,16-difluoro-2,10-dihydroxy-2,10-dioxidooctahydro-12H-5,8-methanofuro[3,2-l][1,3,6,9,11,2,10]pentaoxadiphosphacyclotetradecin-7-yl]-1,9-dihydro-6H-purin-6-one] |  | 150
Nc1nc2c(nnn2[C@@H]2O[C@@H]3COP(=O)(S)O[C@H]4[C@H](F)[C@H](n5cnc6c(=O)[nH]cnc65)O[C@@H]4COP(=O)(S)O[C@@H]2[C@H]3F)c(=O)[nH]1 (stereo partly drawn) [Example 348, 5-amino-3-[(5R,7R,8S,12aR,14R,15S,15aR,16S)-15,16-difluoro-2,10-dioxido-14-(6-oxo-1,6-dihydro-9H-purin-9-yl)-2,10-disulfanyloctahydro-12H-5,8-methanofuro[3,2-l][1,3,6,9,11,2,10]pentaoxadiphosphacyclotetradecin-7-yl]-3,6-dihydro-7H-[1,2,3]triazolo[4,5-d]pyrimidin-7-one] | 8 | 
Nc1nc2c(ncn2[C@@H]2O[C@@H]3COP(=O)(S)OC4[C@@H](COP(=O)(S)O[C@H]2C3)O[C@@H](n2nnc3c(N)ncnc32)[C@H]4F)c(=O)[nH]1 (stereo partly drawn) [Example 133, 2-amino-9-[(5S,7R,8R,12aR,14R,15S,15aR)-14-(7-amino-3H-[1,2,3]triazolo[4,5-d]pyrimidin-3-yl)-15-fluoro-2,10-dihydroxy-2,10-disulfidooctahydro-12H-5,8-methanofuro[3,2-l][1,3,6,9,11,2,10]pentaoxadiphosphacyclotetra-decin-7-yl]-1,9-dihydro-6H-purin-6-one] | 117 | 
Nc1nc2c(ncn2[C@@H]2O[C@@H]3COP(=O)(O)O[C@H]4[C@H](F)[C@H](n5cnc6c(N)ncnc65)O[C@@H]4COP(O)(=S)O[C@@H]2[C@@H]3F)c(=O)[nH]1 (single isomer, unassigned) [Example 273] | 85 | 
Nc1nc2c(ncn2[C@@H]2O[C@@H]3COP(=O)(S)O[C@H]4[C@@H](O)[C@H](n5ccc6c(N)ncnc65)O[C@@H]4COP(=O)(S)O[C@@H]2C3)c(=O)[nH]1 (stereo partly drawn) [Example 80, 2-amino-9-[(5S,7R,8R,12aR,14R,15R,15aS)-14-(4-amino-7H-pyrrolo[2,3-d]pyrimidin-7-yl)-15-hydroxy-2,10-dioxido-2,10-disulfanyloctahydro-12H-5,8-methanofuro[3,2-l][1,3,6,9,11,2,10]pentaoxadiphosphacyclotetradecin-7-yl]-1,9-dihydro-6H-purin-6-one] | 234 | 
Nc1nc2c(ncn2[C@@H]2O[C@@H]3COP(=O)(S)OC4[C@@H](COP(=O)(S)OC2C3O)O[C@@H](n2cnc3c(N)ncnc32)[C@H]4F)c(=O)[nH]1 (single isomer, unassigned) [Example 92] | 62 | 
Nc1nc2c(ncn2[C@@H]2O[C@@H]3COP(=O)(O)O[C@H]4[C@@H](O)[C@H](n5cnc6c(N)ncnc65)O[C@@H]4COP(=O)(O)O[C@@H]2[C@H]3O)c(=O)[nH]1 [Example 39, 2-amino-9-[(5R,7R,8R,12aR,14R,15R,15aS,16S)-14-(6-amino-9H-purin-9-yl)-2,10,15,16-tetrahydroxy-2,10-dioxidooctahydro-12H-5,8-methanofuro[3,2-l][1,3,6,9,11,2,10]pentaoxadiphosphacyclotetradecin-7-yl]-1,9-dihydro-6H-purin-6-one] |  | 74
Nc1nc2c(ncn2[C@@H]2O[C@@H]3CO[P@@](=O)(S)OC4[C@@H](CO[P@@](=O)(S)O[C@H]2C3O)O[C@@H](n2cnc3c(N)ncnc32)[C@H]4F)c(=O)[nH]1 (single isomer, unassigned) [Example 89] | 119 | 
Nc1nc2c(nnn2[C@@H]2O[C@@H]3COP(=O)(S)O[C@H]4[C@H](F)[C@H](n5nnc6c(=O)[nH]cnc65)O[C@@H]4COP(=O)(S)O[C@@H]2C3)c(=O)[nH]1 (single isomer, unassigned) [Example 340] | 306 | 
Nc1nc2c(ncn2[C@@H]2O[C@@H]3COP(=O)(O)O[C@H]4[C@H](O)[C@H](n5cnc6c(N)ncnc65)O[C@@H]4COP(=O)(O)O[C@@H]2[C@@H]3O)c(=O)[nH]1 [Example 48, 2-amino-9-[(5R,7R,8R,12aR,14R,15S,15aS,16R)-14-(6-amino-9H-purin-9-yl)-2,10,15,16-tetrahydroxy-2,10-dioxidooctahydro-12H-5,8-methanofuro[3,2-l][1,3,6,9,11,2,10]pentaoxadiphosphacyclotetradecin-7-yl]-1,9-dihydro-6H-purin-6-one] |  | 104
Nc1nc2c(ncn2[C@@H]2O[C@@H]3COP(=O)(S)O[C@H]4[C@H](F)[C@H](n5cnc6c(N)ncnc65)O[C@@H]4COP(=O)(S)O[C@@H]2[C@H]3F)c(=O)[nH]1 (single isomer, unassigned) [Example 145] |  | 141
Nc1nc2c(ncn2[C@@H]2O[C@@H]3COP(=O)(O)O[C@H]4[C@H](F)[C@H](n5nnc6c(=O)[nH]cnc65)O[C@@H]4COP(=O)(S)O[C@@H]2[C@@H]3F)c(=O)[nH]1 (single isomer, unassigned) [Example 346] | 182 | 
Nc1nc2c(ncn2[C@@H]2O[C@@H]3COP(=O)(O)O[C@H]4[C@H](F)[C@H](n5nnc6c(=O)[nH]cnc65)O[C@@H]4COP(=O)(S)O[C@@H]2[C@@H]3F)c(=O)[nH]1 (single isomer, unassigned) [Example 347] | 225 | 
Nc1nc2c(ncn2[C@@H]2S[C@@H]3COP(=O)(O)O[C@H]4[C@H](F)[C@H](n5cnc6c(=O)[nH]cnc65)O[C@@H]4COP(=O)(S)O[C@@H]2[C@@H]3O)c(=O)[nH]1 (stereo partly drawn) [Example 339, 2-amino-9-[(5R,7R,8R,12aR,14R,15S,15aR,16S)-15-fluoro-2,16-dihydroxy-2,10-dioxido-14-(6-oxo-1,6-dihydro-9H-purin-9-yl)-10-sulfanyloctahydro-12H-5,8-methanofuro[3,2-l][1,3,9,11,6,2,10]tetraoxathiadiphosphacyclotetradecin-7-yl]-1,9-dihydro-6H-purin-6-one] | 175 | 
Nc1nc2c(ncn2[C@@H]2O[C@@H]3COP(=O)(S)OC4C5OC[C@]4(COP(=O)(S)OC2C3O)O[C@H]5n2cnc3c(N)ncnc32)c(=O)[nH]1 (single isomer, unassigned) [Example 95] | 118 | 
Nc1nc2c(ncn2[C@@H]2O[C@@H]3COP(O)(=S)O[C@H]4[C@H](F)[C@H](n5cnc6c(N)ncnc65)O[C@@H]4COP(O)(=S)O[C@@H]2[C@@H]3F)c(=O)[nH]1 (single isomer, unassigned) [Example 244] | 96 | 
Nc1nc2c(ncn2[C@@H]2O[C@@H]3COP(=O)(O)O[C@H]4[C@@H](O)[C@H](n5cnc6c(N)ncnc65)O[C@@H]4COP(=O)(O)O[C@@H]2[C@H]3F)c(=O)[nH]1 [Example 52, 2-amino-9-[(5R,7R,8S,12aR,14R,15R,15aS,16S)-14-(6-amino-9H-purin-9-yl)-16-fluoro-2,10,15-trihydroxy-2,10-dioxidooctahydro-12H-5,8-methanofuro[3,2-l][1,3,6,9,11,2,10]pentaoxadiphosphacyclotetradecin-7-yl]-1,9-dihydro-6H-purin-6-one] |  | 143
Nc1nc2c(ncn2[C@@H]2O[C@@H]3COP(=O)(O)OC4C(F)[C@H](n5cnc6c(N)ncnc65)O[C@@H]4COP(=O)(O)OC2C3F)c(=O)[nH]1 (stereo in doubt) [Example 23, 2-amino-9-[(5R,7R,8S,12aR,14R,15R,15aR,16R)-14-(6-amino-9H-purin-9-yl)-15,16-difluoro-2,10-dihydroxy-2,10-dioxidooctahydro-12H-5,8-methanofuro[3,2-l][1,3,6,9,11,2,10]pentaoxadiphosphacyclotetradecin-7-yl]-1,9-dihydro-6H-purin-6-one] |  | 125
